Results taken from ChEMBL document CHEMBL3044762, “Design, Synthesis and Evaluation of Trisubstituted Thiazoles Targeting Plasmodium Falciparum Cysteine Proteases” (Med Chem Res, 2005).

How the values were obtained:
[1] = tested on: Plasmodium falciparum; assay: Antimalarial activity against Plasmodium falciparum W2 […] after 72 hr by LDH assay; format: functional
[2] = tested on: Plasmodium falciparum; assay: Antimalarial activity against Plasmodium falciparum W2 after 72 hr by LDH assay; format: functional, organism-based; conditions: W2, 72 h
[3] = tested on: Leishmania donovani; assay: Antileishmanial activity against Leishmania donovani promastigotes after 72 hr by alamar blue assay; format: functional, organism-based
[4] = tested on: Vero; assay: (§1) Cytotoxicity against Chlorocebus aethiops (African green monkey) Vero cells by Neutral Red assay; format: cell-based; conditions: chlorocebus sabaeus, vero
[5] = tested on: Plasmodium falciparum; assay: Antimalarial activity against Plasmodium falciparum D6 after 72 hr by LDH assay; format: functional, organism-based; conditions: D6, 72 h
[6] = tested on: Plasmodium falciparum; assay: Antimalarial activity against Plasmodium falciparum D6 at EC50 after 72 hr by LDH assay; format: functional; set-up: concentration or dose not given beside the values
[7] = target: Falcipain-3 (Plasmodium falciparum, UniProt Q8IIL0); assay: Inhibition of recombinant Plasmodium falciparum falcipain-3 using Z-Leu-Arg-AMC as substrate compound treated for 30 min before substrate addition by fluorescence assay
[8] = target: T1, Falcipain 2 (Plasmodium falciparum, UniProt Q9N6S8); assay: Inhibition of recombinant Plasmodium falciparum falcipain-2 using Z-Leu-Arg-AMC as substrate compound treated for 30 min before substrate addition by fluorescence assay
T1 sequence (Q9N6S8 whole entry): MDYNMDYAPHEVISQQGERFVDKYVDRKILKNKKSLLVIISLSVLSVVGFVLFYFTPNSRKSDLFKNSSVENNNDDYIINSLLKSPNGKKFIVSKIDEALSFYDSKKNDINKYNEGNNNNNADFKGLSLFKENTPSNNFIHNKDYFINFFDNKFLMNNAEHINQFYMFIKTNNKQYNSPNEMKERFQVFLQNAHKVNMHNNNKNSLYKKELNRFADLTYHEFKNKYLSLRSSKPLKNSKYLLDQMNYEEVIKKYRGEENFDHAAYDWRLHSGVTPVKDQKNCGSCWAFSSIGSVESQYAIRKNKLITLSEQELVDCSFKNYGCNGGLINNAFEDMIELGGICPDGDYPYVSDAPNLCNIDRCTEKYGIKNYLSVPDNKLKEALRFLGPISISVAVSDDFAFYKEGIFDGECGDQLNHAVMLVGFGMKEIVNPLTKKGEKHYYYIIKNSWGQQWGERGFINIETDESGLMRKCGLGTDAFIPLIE

[9] = as §1; format: cell-based; conditions: chlorocebus sabaeus, Vero cells; read-out: TD50 (the source's name)
[10] = tested on: Vero; assay: Cytotoxicity against Chlorocebus aethiops (African green monkey) Vero cells at TD50 by Neutral Red assay; format: cell-based; conditions: chlorocebus sabaeus

Sequence of Falcipain-3 (Q8IIL0 whole entry, looked up): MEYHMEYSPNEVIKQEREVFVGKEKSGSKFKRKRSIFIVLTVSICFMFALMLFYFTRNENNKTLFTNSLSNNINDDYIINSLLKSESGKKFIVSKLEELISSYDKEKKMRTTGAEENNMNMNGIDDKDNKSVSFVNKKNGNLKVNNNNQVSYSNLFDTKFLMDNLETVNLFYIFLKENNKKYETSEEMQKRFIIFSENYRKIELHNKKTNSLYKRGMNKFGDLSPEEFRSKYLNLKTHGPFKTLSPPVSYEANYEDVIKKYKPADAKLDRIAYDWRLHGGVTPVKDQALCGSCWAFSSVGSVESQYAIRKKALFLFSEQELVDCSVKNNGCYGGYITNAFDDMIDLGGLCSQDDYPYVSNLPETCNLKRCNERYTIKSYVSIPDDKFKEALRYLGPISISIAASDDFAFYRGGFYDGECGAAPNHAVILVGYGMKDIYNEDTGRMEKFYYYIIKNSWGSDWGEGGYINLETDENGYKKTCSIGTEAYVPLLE

| SMILES | EC50 [2] [µM] | EC50 [5] [µM] | IC50 [7] [µM] | IC50 [8] [µM] | inhibition (INH) [1] [%] | EC50 [3] [µM] | TD50 [4] | inhibition (INH) [6] [%] | CC50 [9] [µM] | Activity [10] [%] |
| --- | --- | --- | --- | --- | --- | --- | --- | --- | --- | --- |
| O=CCCc1sc(CCC(=O)CSCCCc2ccccc2)nc1CCc1ccccc1 | > 51.1 | > 51.1 | > 50 | 39.1 | 26 | 8.2 | Non-toxic | 45 | – | – |
| NC(=O)CCc1sc(CCC(=O)CSCCCc2ccccc2)nc1CCc1ccccc1 | > 49.5 | > 49.5 | > 50 | > 33 | 43 | 41.6 | – | 42 | > 49.5 | 38 |
| CC(=O)NCCCc1sc(CCC(=O)CSCCCc2ccccc2)nc1CCc1ccccc1 | 16.8 | 32.4 | > 50 | > 33 | – | 39.3 | Non-toxic | – | – | – |
| CCOC(=O)CCc1sc(NC(=O)CSCCCc2ccccc2)nc1/C=C/c1ccccc1 | 20.2 | 28.3 | – | – | – | 50.5 | Non-toxic | – | – | – |
| NC(=O)CCc1sc(NC(=O)CSCCCc2ccccc2)nc1/C=C/c1ccccc1 | > 51.1 | > 51.1 | 55.2 | 15.3 | 26 | 47.2 | Non-toxic | 45 | – | – |
| CC(=O)OCc1nc(CCC(=O)CSCCCc2ccccc2)sc1CCc1ccccc1 | 24.9 | 30.5 | > 50 | > 33 | – | 29.1 | Non-toxic | – | – | – |
| C[C@@H]1[C@H](O)[C@@H](C)/C=C/C=C/C=C/C=C/C=C/C=C/C=C/[C@H](O[C@@H]2O[C@H](C)[C@@H](O)[C@H](N)[C@@H]2O)C[C@@H]2O[C@](O)(C[C@@H](O)C[C@@H](O)[C@H](O)CC[C@@H](O)C[C@@H](O)CC(=O)O[C@H]1C)C[C@H](O)[C@H]2C(=O)O [AMPHOTERICIN B] | – | – | – | – | – | 0.2 | – | – | – | – |
| C[C@@H]1CC[C@H]2[C@@H](C)C(=O)O[C@@H]3O[C@@]4(C)CC[C@@H]1[C@]32OO4 [ARTEMISININ] | 0.023 | 0.025 | – | – | – | – | – | – | – | – |
| CCN(CC)CCCC(C)Nc1ccnc2cc(Cl)ccc12 (stereo not drawn) [CHLOROQUINE] | 0.359 | 0.059 | – | – | – | – | – | – | – | – |
| N=C(N)c1ccc(OCCCCCOc2ccc(C(=N)N)cc2)cc1 [PENTAMIDINE] | – | – | – | – | – | 5 | – | – | – | – |

Further lines, with some results ahead:

| EC50 [2] [µM] | EC50 [5] [µM] | IC50 [7] [µM] | IC50 [8] [µM] | SMILES | inhibition (INH) [1] [%] | EC50 [3] [µM] | TD50 [4] | inhibition (INH) [6] [%] | CC50 [9] [µM] | Activity [10] [%] |
| --- | --- | --- | --- | --- | --- | --- | --- | --- | --- | --- |
| > 90.7 | > 90.7 | – | – | Nc1nc(CCc2ccccc2)c(CCCO)s1 | 26 | > 152 | Non-toxic | 37 | – | – |
| 13.8 | 35.4 | 29.4 | < 6.6 | O=C(/C=C/c1nc(CCc2ccccc2)c(CCCO)s1)CSCCCc1ccccc1 | – | 4.5 | – | – | > 51.1 | – |
| 19.1 | 20.3 | > 50 | > 12.5 | O=C(CCc1nc(CCc2ccccc2)c(CCCO)s1)CSCCCc1ccccc1 | – | 16.3 | – | – | 40.6 | – |
| > 20 | – | > 50 | > 12.5 | O=C(CCc1nc(CO)c(CCc2ccccc2)s1)CSCCCc1ccccc1 | – | – | – | – | – | – |
